SMILES strings stand for the structures. Values after ≈ are worked out from the molar mass of the structure shown. Where two headings read alike, the source gives them in different places. Some results are limits rather than exact numbers.

Among the data in patent US7358359B2, “Antibacterial agents” (University of Washington, priority 2003, dated 2008) are MIC values, retold here.

Assay type in all cases: cell-based
Test [1] has as its system Pseudomonas aeruginosa cystic fibrosis isolate 3224. Briefly: MIC vs cystic fibrosis isolate of P. aeruginosa 3224. Conditions: strain 3224, Tobra R, LpxC inhibitors, MIC key class. In short, it runs like this:
(§1)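 Isolates were passaged twice overnight on 5% blood agar at 35° C., adjusted to 0.5 McFarland and inoculated at 3×10^5–7×10^5 CFU/mL into 2-fold drug dilutions in cation-adjusted Mueller-Hinton broth. Trays were incubated 18-24 hours at 35° C.; the MIC was read as the lowest concentration preventing visible growth.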

The test system of test [2] is Acinetobacter calcoaceticus. In words: MIC vs non-fermenting organisms: Acinetobacter calcoaceticus. Conditions: Acinet. calc., MIC key class. The method, boiled down: as §1
The subject of a further test is Proteus mirabilis. In words: MIC vs enteric organisms: Proteus mirabilis. To be noted: P. mir., MIC key class. In short, it runs like this: as §1
Test [3] deals with Pseudomonas aeruginosa cystic fibrosis isolate 3236. In words: MIC vs cystic fibrosis isolate of P. aeruginosa 3236 (sensitive to most antibacterials). Conditions: strain 3236, Sensitive, LpxC inhibitors, MIC key class. In short, it runs like this:
as §1

The subject of a further test is Klebsiella oxytoca. Briefly: MIC vs enteric organisms: Klebsiella oxytoca. Conditions: K. oxy., MIC key class. The method, boiled down:
as §1

The subject of test [4] is Pseudomonas aeruginosa cystic fibrosis isolate 3198. In words: MIC vs cystic fibrosis isolate of P. aeruginosa 3198 (sensitive to most antibacterials). Conditions: strain 3198, Sensitive, LpxC inhibitors, MIC key class. The method, boiled down:
as §1

A further test concerns P. aeruginosa 27853. Briefly: MIC broth microdilution, standard panel: P. aeruginosa 27853. To be noted: Pseudomonas aeruginosa, standard panel of organisms. As for the experimental part: (§2) Bacterial isolates were cultivated from −70° C. frozen stocks by two consecutive overnight passages at 35° C. in ambient air on 5% blood agar (Remel, Lenexa, Kans.). Clinical isolates tested were from a collection composed of isolates collected during clinical trials and recent clinical isolates obtained from various geographically diverse hospitals in the US. Quality control and primary panel strains were from the American Type Culture Collection (ATCC; Rockville, Md.), with the exception of P. aeruginosa PAO200, a strain with a deletion of the mexABoprM genes that was received from Dr. H. Schweizer. […] Strain Z61 (ATCC 35151) is also hypersusceptible to antibacterials. It is thought that the hypersusceptibility of this strain is the result of increased permeability of its outer membrane (Angus B L et al, Antimicrobial Agents and Chemotherapy 1982 21,299-309: Outer membrane permeability in Pseudomonas aeruginosa: Comparison of a wild-type with an antibacterial-supersusceptible mutant).
(§3) Minimum Inhibitory Concentrations (MICs) were determined by the broth microdilution method in accordance with the National Committee for Clinical Laboratory Standards (NCCLS) guidelines. In brief, organism suspensions were are adjusted to a 0.5 McFarland standard to yield a final inoculum between 3×10^5 and 7×10^5 colony-forming units (CFU)/mL. Drug dilutions and inocula were made in sterile, cation adjusted Mueller-Hinton Broth (Remel). An inoculum volume of 100 μl was added to wells containing 100 μl of broth with 2-fold serial dilutions of drug. All inoculated microdilution trays were incubated in ambient air at 35° C. for 18-24 hours. Following incubation, the lowest concentration of the drug that prevented visible growth was recorded as the MIC. Performance of the assay was monitored by the use of laboratory quality-control strains against tobramycin, that has a defined MIC spectrum, in accordance with NCCLS guidelines.
(In general: In broth dilution the organism is exposed to a series of concentrations in liquid medium.)

In a further test the test system is Enterobacter aerogenes. Briefly: MIC vs enteric organisms: Enterobacter aerogenes. To be noted: Klebsiella aerogenes; E. aer.; MIC key class. In short, it runs like this:
as §1

In a further test the test system is Alcaligenes xylosoxidans. In words: MIC vs non-fermenting organisms: Alcaligenes xylosoxidans. Conditions: Achromobacter xylosoxidans; Alcal. xyl; MIC key class. In short, it runs like this:
as §1

The test system of a further test is Klebsiella pneumoniae. Briefly: MIC vs enteric organisms: Klebsiella pneumoniae. Conditions: K. pneu., MIC key class. The method, boiled down:
as §1

For test [5], the system named is Stenotrophomonas maltophilia. Briefly: MIC vs non-fermenting organisms: Stenotrophomonas maltophilia. To be noted: Stenotrophomonas maltophilia, S. malt.; MIC key class; read-out: MIC. The method, boiled down: as §1
Test [6] concerns P. aeruginosa PAO200 mexAB. In words: MIC broth microdilution, standard panel: P. aeruginosa PAO200 mexAB. To be noted: Pseudomonas aeruginosa, PAO200MEXAB, read-out: MIC P. aeruginosa PAO200 mexAB. As for the experimental part: as §2, §3
The test system of test [7] is Pseudomonas aeruginosa cystic fibrosis isolate 2196. Briefly: MIC vs cystic fibrosis isolate of P. aeruginosa 2196 (resistant to ciprofloxacin). Conditions: strain 2196, Cipro R, LpxC inhibitors, MIC key class. The method, boiled down: as §1
The subject of test [8] is non-CF clinical isolates of P. aeruginosa. Briefly: MIC vs non-CF clinical isolates of P. aeruginosa. Conditions: Pseudomonas aeruginosa, MIC key class. The method, boiled down: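 MIC read as the lowest drug concentration giving no visible growth after 18-24 hours at 35° C. in ambient air. Testing followed NCCLS broth microdilution in cation-adjusted Mueller-Hinton broth, final inoculum 3×10^5–7×10^5 CFU/mL; tobramycin quality-control strains monitored performance.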

The test system of test [9] is Pseudomonas aeruginosa cystic fibrosis isolate 3317. Briefly: MIC vs cystic fibrosis isolate of P. aeruginosa 3317 (resistant to aztreonam). To be noted: strain 3317, Aztr. R, LpxC inhibitors, MIC key class. The method, boiled down:
as §1

The next test deals with S. aureus 29213. In words: MIC broth microdilution, standard panel: S. aureus 29213. To be noted: Staphylococcus aureus, standard panel of organisms. As for the experimental part:
as §2, §3

The subject of another test is E. coli 25922. In words: MIC broth microdilution, standard panel: E. coli 25922. Conditions: Escherichia coli, standard panel of organisms. As for the experimental part: as §2, §3
In the next test the test system is Serratia marcescens. In words: MIC vs enteric organisms: Serratia marcescens. Conditions: S. marc., MIC key class. In short, it runs like this:
as §1

Another test deals with Enterobacter cloacae. Briefly: MIC vs enteric organisms: Enterobacter cloacae. To be noted: E. clo., MIC key class. In short, it runs like this: as §1
Another test relates to Escherichia coli. Briefly: MIC vs enteric organisms: Escherichia coli clinical isolates. To be noted: Escherichia coli, MIC key class, read-out: MIC. The method, boiled down:
as §1

For the molecule `C[C@@H](O)[C@H](NC(=O)c1ccc(C#CC#Cc2ccc(NC(=O)CNc3ccccc3)cc2)cc1)C(=O)NO` [Example 777, N-{(1S,2R)-2-hydroxy-1-[(hydroxyamino)carbonyl]propyl}-4-[4-(4-{[(phenylamino)acetyl]amino}phenyl)buta-1,3-diynyl]benzamide], the MIC (in test [1]; in test [2]; in the test with Proteus mirabilis; in [3]; with Klebsiella oxytoca; in [4]) was below 6.25 µg/mL in each case. For the same molecule, the MIC (commonly the lowest concentration that inhibits growth of the organism) in the test on P. aeruginosa 27853 is below 6.25 µg/mL; in the test on Enterobacter aerogenes it was 6.25 to 50 µg/mL (≈ 12.2 to 97.9 µM); in the test with Alcaligenes xylosoxidans, 6.25 to 50 µg/mL (≈ 12.2 to 97.9 µM); in the test with Klebsiella pneumoniae, below 6.25 µg/mL; in test [5], above 50 µg/mL; in test [6], below 6.25 µg/mL. The minimum inhibitory concentration (MIC) in test [7] was below 6.25 µg/mL; in [8] (P. aer 12307), below 6.25 µg/mL; in test [8] (P. aer 27853) it was below 6.25 µg/mL; in [8] (P. aer psa-6b) it was 6.25 to 50 µg/mL (≈ 12.2 to 97.9 µM); in test [9], below 6.25 µg/mL; with S. aureus 29213 it was above 50 µg/mL. In addition, the MIC against E. coli 25922, against Serratia marcescens, in the test with Enterobacter cloacae, with Escherichia coli (E. coli 1619) and in the test with Escherichia coli (E. coli 2788) was below 6.25 µg/mL each time.

As for `CCc1ccc(-c2ccc(C(=O)N[C@H](C(=O)NO)[C@@H](C)N)cc2)cc1` [Example 779, N-{(1S,2R)-2-amino-1-[(hydroxyamino)carbonyl]propyl)-4′-ethyl-1,1′-biphenyl-4-carboxamide], the MIC in test [1] was below 6.25 µg/mL; in test [2], above 50 µg/mL; against Proteus mirabilis, 6.25 to 50 µg/mL (≈ 18.3 to 146 µM); in [3], below 6.25 µg/mL; against Klebsiella oxytoca, 6.25 to 50 µg/mL (≈ 18.3 to 146 µM); in [4] it was below 6.25 µg/mL. The MIC against P. aeruginosa 27853 is below 6.25 µg/mL; in the test with Enterobacter aerogenes, above 50 µg/mL; with Alcaligenes xylosoxidans it was below 6.25 µg/mL; against Klebsiella pneumoniae, 6.25 to 50 µg/mL (≈ 18.3 to 146 µM); in test [5] it was 6.25 to 50 µg/mL (≈ 18.3 to 146 µM); in test [6] it was below 6.25 µg/mL. Further, the MIC is below 6.25 µg/mL in test [7]; below 6.25 µg/mL in [8] (P. aer 27853); below 6.25 µg/mL in test [8] (P. aer psa-6b); below 6.25 µg/mL in test [8] (PAO1, P. aer. PAO1); below 6.25 µg/mL in test [9]; above 50 µg/mL in the test on S. aureus 29213. Moreover, the MIC against E. coli 25922, in the test with Serratia marcescens, against Enterobacter cloacae, in the test on Escherichia coli (E. coli 1619) and with Escherichia coli (E. coli 2788) was below 6.25 µg/mL throughout.

On to `C[C@@H](O)[C@H](NC(=O)c1ccc(C#CC#Cc2ccc(NC(=O)CNc3ccccn3)cc2)cc1)C(=O)NO` [Example 801, N-{(1S,2R)-2-hydroxy-1-[(hydroxyamino)carbonyl]propyl}-4-[4-(4-{[(pyridin-2-ylamino)acetyl]amino}phenyl)buta-1,3-diynyl]benzamide], for which the MIC was below 6.25 µg/mL in [1]; 6.25 to 50 µg/mL (≈ 12.2 to 97.7 µM) in test [2]; below 6.25 µg/mL with Proteus mirabilis; below 6.25 µg/mL in test [3]; below 6.25 µg/mL in the test with Klebsiella oxytoca; below 6.25 µg/mL in test [4]. Also, the minimum inhibitory concentration (MIC) in the test on P. aeruginosa 27853 was below 6.25 µg/mL; against Enterobacter aerogenes, 6.25 to 50 µg/mL (≈ 12.2 to 97.7 µM); against Alcaligenes xylosoxidans, above 50 µg/mL; against Klebsiella pneumoniae, below 6.25 µg/mL; in test [5], above 50 µg/mL; in test [6], below 6.25 µg/mL. Besides, the MIC in test [7] is below 6.25 µg/mL; in test [8] (P. aer 27853), below 6.25 µg/mL; in [8] (P. aer psa-6b), below 6.25 µg/mL; in [8] (PAO1, P. aer. PAO1), below 6.25 µg/mL; in test [9], below 6.25 µg/mL; in the test with S. aureus 29213, above 50 µg/mL. Further, the MIC in the test with E. coli 25922, with Serratia marcescens, in the test on Enterobacter cloacae, with Escherichia coli (E. coli 1619) and in the test with Escherichia coli (E. coli 2788) was below 6.25 µg/mL throughout.
